Results published in ChEMBL document CHEMBL1201862, “PubChem BioAssay data set” (2004).
Activity calls are given as the source filed them.

Experiments:
Cytochrome P450 3A4 [1] = molecular target: T1, Cytochrome P450 3A4 (Homo sapiens, UniProt P08684); conditions: Potency
[2] = molecular target: T2, G-protein coupled receptor 55 (Homo sapiens, UniProt Q9Y2T6); test: GPR55 antagonists blocking LPI-driven arrestin recruitment, primary screen, imaging, U2OS, beta-arrestin-GFP, LPI agonist (AID 2013); assay type: functional;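 note: antagonist potency measured as reduced agonist-driven arrestin aggregation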
T2 sequence (Q9Y2T6 whole entry): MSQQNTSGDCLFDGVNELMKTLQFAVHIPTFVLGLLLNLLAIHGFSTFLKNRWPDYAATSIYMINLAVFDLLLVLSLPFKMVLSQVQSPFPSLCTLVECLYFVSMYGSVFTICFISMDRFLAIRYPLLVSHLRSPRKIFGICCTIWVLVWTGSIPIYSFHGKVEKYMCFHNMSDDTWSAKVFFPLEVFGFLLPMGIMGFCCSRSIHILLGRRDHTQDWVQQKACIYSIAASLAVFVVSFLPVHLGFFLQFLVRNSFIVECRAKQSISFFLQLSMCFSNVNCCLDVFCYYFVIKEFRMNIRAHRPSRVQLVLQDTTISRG

[3] = molecular target: T2, G-protein coupled receptor 55; test: GPR55 agonists via beta-arrestin recruitment, primary screen, imaging, U2OS cells, beta-arrestin-GFP redistribution (AID 1961); assay type: functional
Cytochrome P450 2D6 = Cytochrome P450 2D6 (Homo sapiens, UniProt P10635);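 note: CYP2D6 member of a cytochrome P450 panel assay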
Cytochrome P450 3A4 [4] = molecular target: T1, Cytochrome P450 3A4
[5] = molecular target: T3, Peroxisome proliferator-activated receptor gamma/Nuclear receptor coactivator 3 (Homo sapiens, UniProt P37231); assay type: functional
[6] = molecular target: T4, Peroxisome proliferator-activated receptor gamma/Nuclear receptor coactivator 1 (Homo sapiens, UniProt P37231); assay type: functional
T4 sequence (P37231 whole entry): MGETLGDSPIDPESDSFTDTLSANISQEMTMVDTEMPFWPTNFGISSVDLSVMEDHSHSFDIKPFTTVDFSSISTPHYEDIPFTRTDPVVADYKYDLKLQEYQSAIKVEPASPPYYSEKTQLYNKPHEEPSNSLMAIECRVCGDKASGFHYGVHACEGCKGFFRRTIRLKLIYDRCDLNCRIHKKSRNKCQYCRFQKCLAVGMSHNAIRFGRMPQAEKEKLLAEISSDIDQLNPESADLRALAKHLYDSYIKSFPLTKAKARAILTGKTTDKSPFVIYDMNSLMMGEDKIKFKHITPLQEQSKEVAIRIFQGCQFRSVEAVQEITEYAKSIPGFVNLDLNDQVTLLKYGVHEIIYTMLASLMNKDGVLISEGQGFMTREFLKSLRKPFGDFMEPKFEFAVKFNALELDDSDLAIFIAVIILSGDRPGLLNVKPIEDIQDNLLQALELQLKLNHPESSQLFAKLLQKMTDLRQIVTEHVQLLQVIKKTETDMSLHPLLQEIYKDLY
T4 sequence (Q15788 whole entry, further chain): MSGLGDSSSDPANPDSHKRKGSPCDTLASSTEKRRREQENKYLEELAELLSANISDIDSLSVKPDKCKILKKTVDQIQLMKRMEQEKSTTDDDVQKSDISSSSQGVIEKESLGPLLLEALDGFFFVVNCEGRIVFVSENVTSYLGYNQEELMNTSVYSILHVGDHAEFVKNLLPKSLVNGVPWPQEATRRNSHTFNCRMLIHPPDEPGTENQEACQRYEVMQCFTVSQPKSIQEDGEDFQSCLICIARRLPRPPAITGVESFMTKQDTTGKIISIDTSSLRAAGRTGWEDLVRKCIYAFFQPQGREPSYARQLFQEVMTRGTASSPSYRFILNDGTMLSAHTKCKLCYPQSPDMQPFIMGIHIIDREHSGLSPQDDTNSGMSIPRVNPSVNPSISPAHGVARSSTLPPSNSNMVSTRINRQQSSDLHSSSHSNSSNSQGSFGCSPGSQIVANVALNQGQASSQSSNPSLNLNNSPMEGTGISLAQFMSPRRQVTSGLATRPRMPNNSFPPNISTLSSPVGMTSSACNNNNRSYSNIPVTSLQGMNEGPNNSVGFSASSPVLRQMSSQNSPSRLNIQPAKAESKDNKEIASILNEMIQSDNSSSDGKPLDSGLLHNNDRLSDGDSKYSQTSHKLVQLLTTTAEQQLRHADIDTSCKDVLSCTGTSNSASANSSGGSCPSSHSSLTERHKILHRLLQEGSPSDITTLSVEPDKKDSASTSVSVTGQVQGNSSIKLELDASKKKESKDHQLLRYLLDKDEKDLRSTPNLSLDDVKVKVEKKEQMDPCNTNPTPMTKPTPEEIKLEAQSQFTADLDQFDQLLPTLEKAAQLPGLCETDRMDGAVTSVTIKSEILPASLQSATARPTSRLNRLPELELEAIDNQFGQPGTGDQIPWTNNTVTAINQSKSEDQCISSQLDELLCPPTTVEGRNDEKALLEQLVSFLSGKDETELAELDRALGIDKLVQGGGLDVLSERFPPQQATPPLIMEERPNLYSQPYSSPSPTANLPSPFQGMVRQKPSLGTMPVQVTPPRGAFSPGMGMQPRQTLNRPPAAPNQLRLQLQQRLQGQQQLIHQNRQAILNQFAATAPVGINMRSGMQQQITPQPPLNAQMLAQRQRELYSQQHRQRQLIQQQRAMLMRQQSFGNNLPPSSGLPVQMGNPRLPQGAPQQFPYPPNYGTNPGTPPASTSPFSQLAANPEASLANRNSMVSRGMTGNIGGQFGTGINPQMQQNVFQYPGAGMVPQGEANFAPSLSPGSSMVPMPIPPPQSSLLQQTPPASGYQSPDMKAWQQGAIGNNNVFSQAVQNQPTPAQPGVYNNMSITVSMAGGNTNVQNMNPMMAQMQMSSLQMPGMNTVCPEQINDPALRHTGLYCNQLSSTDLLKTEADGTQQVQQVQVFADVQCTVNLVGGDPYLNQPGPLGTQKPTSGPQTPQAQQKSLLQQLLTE

[7] = molecular target: T5, Peroxisome proliferator-activated receptor gamma/Nuclear receptor coactivator 2 (Homo sapiens, UniProt P37231); assay type: functional
T5 sequence (P37231 whole entry): as the sequence (P37231 whole entry) above
T5 sequence (Q15596 whole entry, further chain): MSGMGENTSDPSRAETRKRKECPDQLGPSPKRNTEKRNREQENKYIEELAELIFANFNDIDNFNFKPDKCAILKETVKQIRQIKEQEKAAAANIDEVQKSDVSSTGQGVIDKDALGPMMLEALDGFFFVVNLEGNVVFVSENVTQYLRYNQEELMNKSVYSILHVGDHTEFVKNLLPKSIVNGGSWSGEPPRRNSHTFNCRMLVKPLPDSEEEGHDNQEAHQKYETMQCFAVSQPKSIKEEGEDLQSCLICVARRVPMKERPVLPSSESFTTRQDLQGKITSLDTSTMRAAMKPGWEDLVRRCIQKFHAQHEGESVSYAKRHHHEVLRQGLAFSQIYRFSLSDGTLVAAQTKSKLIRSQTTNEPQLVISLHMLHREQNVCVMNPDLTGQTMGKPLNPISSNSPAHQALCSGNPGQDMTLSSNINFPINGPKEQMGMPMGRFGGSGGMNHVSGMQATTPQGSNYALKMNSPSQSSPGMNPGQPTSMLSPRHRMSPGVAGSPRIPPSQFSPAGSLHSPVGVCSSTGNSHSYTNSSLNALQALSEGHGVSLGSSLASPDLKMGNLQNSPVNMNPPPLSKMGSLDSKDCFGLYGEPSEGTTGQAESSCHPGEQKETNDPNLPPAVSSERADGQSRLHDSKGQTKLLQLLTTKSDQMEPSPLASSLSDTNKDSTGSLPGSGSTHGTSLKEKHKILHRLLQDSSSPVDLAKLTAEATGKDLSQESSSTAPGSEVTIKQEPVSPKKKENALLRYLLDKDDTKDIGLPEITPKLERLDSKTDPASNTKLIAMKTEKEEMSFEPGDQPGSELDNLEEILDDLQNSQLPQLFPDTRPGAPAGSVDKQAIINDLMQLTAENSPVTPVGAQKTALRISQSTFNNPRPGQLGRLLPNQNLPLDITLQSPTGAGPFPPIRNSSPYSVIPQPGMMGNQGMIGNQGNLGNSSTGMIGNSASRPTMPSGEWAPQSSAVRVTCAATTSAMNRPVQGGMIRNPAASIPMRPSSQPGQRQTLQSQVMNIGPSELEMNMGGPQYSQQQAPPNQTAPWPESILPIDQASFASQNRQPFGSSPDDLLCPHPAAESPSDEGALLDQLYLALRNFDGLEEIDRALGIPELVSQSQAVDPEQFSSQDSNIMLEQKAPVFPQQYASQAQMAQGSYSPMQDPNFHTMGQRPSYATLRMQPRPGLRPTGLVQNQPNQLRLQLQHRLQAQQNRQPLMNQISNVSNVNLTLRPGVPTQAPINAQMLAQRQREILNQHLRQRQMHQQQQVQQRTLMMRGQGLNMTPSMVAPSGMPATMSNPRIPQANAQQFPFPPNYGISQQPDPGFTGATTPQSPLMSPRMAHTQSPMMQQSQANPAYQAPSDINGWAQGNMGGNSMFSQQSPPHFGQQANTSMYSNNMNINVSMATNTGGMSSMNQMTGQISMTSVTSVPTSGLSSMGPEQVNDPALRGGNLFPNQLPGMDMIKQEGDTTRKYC

[8] = molecular target: Glyceraldehyde-3-phosphate dehydrogenase (Homo sapiens, UniProt P04406)
Sequence of Glyceraldehyde-3-phosphate dehydrogenase (P04406 whole entry): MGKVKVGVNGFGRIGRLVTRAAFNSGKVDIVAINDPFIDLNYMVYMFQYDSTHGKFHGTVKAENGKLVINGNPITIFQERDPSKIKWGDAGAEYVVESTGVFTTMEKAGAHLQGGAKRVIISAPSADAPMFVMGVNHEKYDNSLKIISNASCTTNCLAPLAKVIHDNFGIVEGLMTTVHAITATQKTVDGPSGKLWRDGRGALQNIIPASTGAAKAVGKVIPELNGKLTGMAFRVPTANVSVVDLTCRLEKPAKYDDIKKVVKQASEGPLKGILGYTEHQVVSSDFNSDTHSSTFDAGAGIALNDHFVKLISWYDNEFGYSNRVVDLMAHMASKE

[9] = molecular target: T6, Alkaline phosphatase, tissue-nonspecific isozyme (Homo sapiens, UniProt P05186); test: human TNAP enzyme inhibitors, SAR follow-up, biochemical, luminescent, dose response (AID 1056)
T6 sequence (P05186 whole entry): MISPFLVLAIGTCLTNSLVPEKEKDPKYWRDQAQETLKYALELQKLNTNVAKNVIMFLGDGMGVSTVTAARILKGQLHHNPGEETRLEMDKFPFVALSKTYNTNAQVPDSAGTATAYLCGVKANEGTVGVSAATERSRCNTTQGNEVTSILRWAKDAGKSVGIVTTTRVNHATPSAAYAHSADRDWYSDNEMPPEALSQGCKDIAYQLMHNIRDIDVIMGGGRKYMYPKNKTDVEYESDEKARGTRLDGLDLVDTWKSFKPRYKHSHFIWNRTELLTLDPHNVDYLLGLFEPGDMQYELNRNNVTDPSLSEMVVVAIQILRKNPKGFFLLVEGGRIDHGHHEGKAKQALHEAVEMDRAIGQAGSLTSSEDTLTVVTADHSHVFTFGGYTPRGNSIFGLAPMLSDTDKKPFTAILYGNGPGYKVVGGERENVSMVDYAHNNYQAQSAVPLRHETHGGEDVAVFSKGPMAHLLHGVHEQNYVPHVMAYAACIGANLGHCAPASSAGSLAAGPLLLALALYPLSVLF

[10] = molecular target: T3, Peroxisome proliferator-activated receptor gamma/Nuclear receptor coactivator 3; test: TR-FRET dose response biochemical High Throughput Screening assay for agonists of the steroid receptor coactivator 3 (SRC-3) recruitment by the peroxisome proliferator-activated receptor gamma (PPAR gamma): non-selective agonists. [Related pubchem assays: 1301 (Confirmation screen.), 1048 (Primary screen.)]; assay type: functional
[11] = molecular target: T4, Peroxisome proliferator-activated receptor gamma/Nuclear receptor coactivator 1; test: TR-FRET dose response biochemical High Throughput Screening assay for agonists of the steroid receptor coactivator 1 (SRC-1) recruitment by the peroxisome proliferator-activated receptor gamma (PPAR gamma): non-selective agonists. [Related pubchem assays (depositor defined):AID1300, AID1808, AID504735, AID631]; assay type: protein assay
[12] = molecular target: T5, Peroxisome proliferator-activated receptor gamma/Nuclear receptor coactivator 2; test: TR-FRET dose response biochemical High Throughput Screening assay for agonists of the steroid receptor coactivator 2 (SRC-2) recruitment by the peroxisome proliferator-activated receptor gamma (PPAR gamma): non-selective agonists. [Related pubchem assays: 1297, 1032 ]; assay type: functional
Aminopeptidase N = molecular target: T7, Aminopeptidase N (Plasmodium falciparum FcB1/Columbia, UniProt O96935); test: P. falciparum M1AAP inhibitors, biochemical, fluorogenic H-Leu-NHMec substrate, 1536-well (AID 1445); parameters: species or system Plasmodium falciparum 3D7, 3D7
T7 sequence (O96935 whole entry): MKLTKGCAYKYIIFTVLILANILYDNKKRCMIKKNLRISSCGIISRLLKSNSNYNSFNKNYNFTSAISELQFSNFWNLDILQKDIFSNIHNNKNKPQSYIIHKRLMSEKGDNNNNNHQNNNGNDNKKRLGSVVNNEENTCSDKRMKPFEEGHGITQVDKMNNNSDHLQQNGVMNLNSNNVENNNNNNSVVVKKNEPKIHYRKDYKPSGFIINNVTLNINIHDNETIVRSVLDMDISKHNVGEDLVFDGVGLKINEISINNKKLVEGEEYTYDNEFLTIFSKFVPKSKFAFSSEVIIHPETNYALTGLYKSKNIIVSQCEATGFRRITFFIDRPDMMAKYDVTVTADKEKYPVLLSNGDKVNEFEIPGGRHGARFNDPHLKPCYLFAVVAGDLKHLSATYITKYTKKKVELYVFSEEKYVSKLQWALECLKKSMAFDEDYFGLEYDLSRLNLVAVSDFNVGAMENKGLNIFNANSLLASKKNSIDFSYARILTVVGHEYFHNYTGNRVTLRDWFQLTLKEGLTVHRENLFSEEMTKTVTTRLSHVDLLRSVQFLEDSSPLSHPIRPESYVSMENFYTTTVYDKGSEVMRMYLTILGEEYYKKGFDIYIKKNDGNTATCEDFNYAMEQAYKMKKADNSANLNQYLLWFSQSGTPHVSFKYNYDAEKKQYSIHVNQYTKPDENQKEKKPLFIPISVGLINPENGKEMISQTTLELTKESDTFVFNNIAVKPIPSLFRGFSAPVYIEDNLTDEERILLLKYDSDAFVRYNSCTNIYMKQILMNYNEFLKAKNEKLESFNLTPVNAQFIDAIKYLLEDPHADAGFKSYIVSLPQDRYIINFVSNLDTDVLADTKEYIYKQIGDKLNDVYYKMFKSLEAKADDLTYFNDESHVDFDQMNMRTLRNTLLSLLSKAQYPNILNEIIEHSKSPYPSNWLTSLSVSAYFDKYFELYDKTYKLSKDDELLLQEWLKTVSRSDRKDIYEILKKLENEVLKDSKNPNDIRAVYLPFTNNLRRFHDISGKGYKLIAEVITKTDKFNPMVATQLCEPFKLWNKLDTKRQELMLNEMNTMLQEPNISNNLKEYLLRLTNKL

cells = assay type: functional, cell-based; conditions: HEK-CNG
[13] = molecular target: T8, Ubiquitin-conjugating enzyme E2 N (Homo sapiens, UniProt P61088); assay type: functional
T8 sequence (P61088 whole entry): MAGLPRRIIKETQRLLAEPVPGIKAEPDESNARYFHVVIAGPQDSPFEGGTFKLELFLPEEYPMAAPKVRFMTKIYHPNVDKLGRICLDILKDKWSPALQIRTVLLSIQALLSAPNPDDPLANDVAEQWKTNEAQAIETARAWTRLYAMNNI

[14] = molecular target: T8, Ubiquitin-conjugating enzyme E2 N; assay type: functional; remark: listed apart in the source
Bcl-2-related protein A1 = molecular target: T9, Bcl-2-related protein A1 (Mus musculus, UniProt Q07440); assay type: functional;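 note: confirmatory dose–response counterscreen on Bfl-1, used to check hits from a UBC13 polyubiquitin inhibitor campaign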
T9 sequence (Q07440 whole entry): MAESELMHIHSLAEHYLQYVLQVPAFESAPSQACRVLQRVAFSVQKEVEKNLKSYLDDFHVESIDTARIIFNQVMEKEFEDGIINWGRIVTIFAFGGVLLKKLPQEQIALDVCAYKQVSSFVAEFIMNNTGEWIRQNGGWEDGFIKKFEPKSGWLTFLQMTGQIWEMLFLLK

Galanin receptor type 3 = molecular target: T10, Galanin receptor type 3 (Homo sapiens, UniProt O60755); test: Fluorescence-based cell-based primary high throughput dose response assay to identify antagonists of the Galanin Receptor 3 (GalR3).; assay type: functional
T10 sequence (O60755 whole entry): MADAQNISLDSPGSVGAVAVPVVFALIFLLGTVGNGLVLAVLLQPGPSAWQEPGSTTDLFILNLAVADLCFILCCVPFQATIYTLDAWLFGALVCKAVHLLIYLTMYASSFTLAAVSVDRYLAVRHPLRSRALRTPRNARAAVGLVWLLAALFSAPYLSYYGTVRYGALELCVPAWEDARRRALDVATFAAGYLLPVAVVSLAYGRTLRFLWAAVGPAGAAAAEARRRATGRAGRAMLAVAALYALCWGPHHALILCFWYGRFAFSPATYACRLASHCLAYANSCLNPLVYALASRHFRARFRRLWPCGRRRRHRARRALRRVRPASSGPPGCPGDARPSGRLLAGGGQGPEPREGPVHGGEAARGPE

[15] = tested on: Streptococcus sp. 'group A'; test: growth inhibition of control SK(-) GAS strain, dose response, counter-screen for streptokinase expression inhibitor project, luminescence, kanamycin, BacTiterGlo, confirmation (AID 1900); assay type: functional, organism-based
[16] = molecular target: Voltage-dependent T-type calcium channel subunit alpha-1H (Homo sapiens, UniProt O95180); assay type: functional;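 note: channel activity triggered by adding a high calcium stimulation buffer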
Streptococcus = test: Group A Streptococcus viability loss, dose response, counter-screen for streptokinase expression inhibitor project, luminescence, BacTiterGlo (AID 1915); assay type: functional, organism-based;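 note: potency for reduction of bacterial viability or growth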
Streptokinase A = molecular target: T11, Streptokinase A (Streptococcus pyogenes serotype M1, UniProt P10520); test: S. pyogenes streptokinase expression inhibitors, potency, dose response, plasminogen activation absorbance, OD405 (AID 1914); assay type: functional, Streptococcus pyogenes M1 GAS;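 note: secreted streptokinase activity via plasminogen activation per viability signal from cell pellet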
T11 sequence (P10520 whole entry): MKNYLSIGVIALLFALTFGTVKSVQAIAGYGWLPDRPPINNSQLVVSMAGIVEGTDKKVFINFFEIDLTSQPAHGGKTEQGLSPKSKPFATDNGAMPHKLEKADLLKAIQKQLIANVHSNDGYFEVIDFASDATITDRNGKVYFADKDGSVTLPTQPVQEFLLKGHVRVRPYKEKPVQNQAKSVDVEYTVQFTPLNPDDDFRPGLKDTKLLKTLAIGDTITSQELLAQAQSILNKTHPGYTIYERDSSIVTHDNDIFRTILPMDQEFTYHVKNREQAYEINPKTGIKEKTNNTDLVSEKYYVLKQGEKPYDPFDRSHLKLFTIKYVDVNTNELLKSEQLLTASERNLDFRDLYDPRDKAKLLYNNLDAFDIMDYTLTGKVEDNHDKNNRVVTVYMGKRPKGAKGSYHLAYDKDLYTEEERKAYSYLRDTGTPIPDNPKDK

[17] = cytotoxicity in HPDE-C7 cells, cell-based, fluorescence, HTS (AID 430); assay type: functional; conditions: Homo sapiens
[18] = cytotoxicity in KRAS-transformed pancreatic duct cells, primary screen, cell-based, fluorescence, HTS (AID 431); assay type: functional; conditions: Homo sapiens;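 note: cell line used: HPDE-C7K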

T1 sequence (P08684 whole entry): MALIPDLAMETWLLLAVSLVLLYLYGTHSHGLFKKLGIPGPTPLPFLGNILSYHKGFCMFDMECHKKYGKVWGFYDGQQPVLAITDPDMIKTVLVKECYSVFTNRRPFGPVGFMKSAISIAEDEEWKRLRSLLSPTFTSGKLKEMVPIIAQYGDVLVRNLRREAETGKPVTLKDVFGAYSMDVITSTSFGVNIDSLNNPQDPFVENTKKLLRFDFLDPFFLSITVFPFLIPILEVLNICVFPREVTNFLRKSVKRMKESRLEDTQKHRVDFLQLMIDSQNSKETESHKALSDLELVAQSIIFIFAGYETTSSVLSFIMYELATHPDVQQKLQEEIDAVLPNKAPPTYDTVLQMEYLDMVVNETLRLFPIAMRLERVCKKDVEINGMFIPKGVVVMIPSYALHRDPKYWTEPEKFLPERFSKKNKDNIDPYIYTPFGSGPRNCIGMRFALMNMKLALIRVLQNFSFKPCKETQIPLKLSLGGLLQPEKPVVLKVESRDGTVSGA

COc1ccc(C)cc1N
AC50 (Cytochrome P450 3A4 [1]): 31.6 µM (inconclusive)

CN1C(=O)/C(=C/c2c[nH]nc2-c2ccccc2)SC1=S
IC50 [2]: 0.653 µM (active)

CCOC(=O)C(=Cc1ccc(-c2ccsc2C(=O)OC)o1)C(=O)OCC
EC50 [3]: 18.4 µM (inactive)
AC50 (Cytochrome P450 2D6): 39.8 µM (inconclusive)
AC50 (Cytochrome P450 3A4 [4]): 39.8 µM (inconclusive)

C=C(C)C(O)/C=C/CCCCCCC (stereo not drawn)
AC50 (Cytochrome P450 3A4 [1]): 3.98 µM (inconclusive)

CC1(C)Cc2c(C#N)c(SCC(=O)c3ccccc3)nc(N3CCOCC3)c2CO1
EC50 [5]: > 79.4 µM (not active)
EC50 [6]: > 79.4 µM (not active)
EC50 [7]: 79.4 µM (not active)

COc1cc(N(O)O)ccc1S(=O)(=O)Nc1cnc2ccccc2c1
IC50 [8]: > 100 µM (not active)
IC50 [9]: 0.74 µM (active)

ClCc1csc(-c2ccccc2Cl)n1
EC50 [10]: > 79.4 µM (not active)
EC50 [11]: > 79.4 µM (inactive)
EC50 [12]: > 79.4 µM (not active)

FC(F)(F)c1ccc(CN2C[C@@H]3C(c4ccc(C(F)(F)F)cc4)C4(c5ccccc5)CC3(C4)[C@H]2c2ccccc2)cc1 (stereo partly drawn)
AC50 (Cytochrome P450 3A4 [1]): 0.316 µM (inconclusive)

CC1CCN(Cc2c(C(=O)N/N=C/c3ccc(OC(C)C)cc3)nnn2-c2nonc2N)CC1
EC50 [3]: 3.41 µM (active)

COc1ccc(OC)c(C(=O)Nc2cnc3ccccc3c2)c1
IC50 [8]: > 100 µM (not active)
IC50 [9]: > 100 µM (inactive)

CCCN(CCC)C(=O)CSc1nc2c(sc(=S)n2-c2ccc(OCC)cc2)c(=O)[nH]1
IC50 [2]: 1.77 µM (active)
IC50 (Aminopeptidase N): 68.3 µM (active)

COc1ccc(-c2nc3c(c4c2CC(C)OC4)CN(CCC(C)C)CC3)cc1 (stereo not drawn)
AC50 (Cytochrome P450 3A4 [1]): 3.16 µM (inconclusive)

O=C(NCC1CCN(Cc2ccc(Cl)cc2)CC1)C1CCCN(c2ncnc3c2nc2n3CCCCC2)C1 (stereo not drawn)
EC50 (cells): > 29.9 µM (inactive)
IC50 [13]: 7.67 µM (active)
IC50 [14]: 8.14 µM (active)
IC50 (Bcl-2-related protein A1): > 20 µM (inactive)
IC50 (Galanin receptor type 3): > 29.9 µM (inactive)

O=C(c1cccc(S(=O)(=O)N2CCCC2)c1)N1CCCC(C(F)(F)F)C1 (stereo not drawn)
IC50 [13]: 10.7 µM (active)
IC50 [14]: 8.31 µM (active)
IC50 (Bcl-2-related protein A1): > 20 µM (inactive)

CCc1ccc(OC)c(S(=O)(=O)Nc2cccnc2)c1
IC50 [8]: > 100 µM (not active)
IC50 [9]: 1.72 µM (active)

CC(/C=N/NC(=O)c1nnn(-c2nonc2N)c1CN1CCCCC1)=C\c1ccccc1
EC50 [3]: < 0.5 µM (active)

CCCCCn1c(CN2CCN(c3cc(Cl)ccc3C)CC2)nc2c1c(=O)[nH]c(=O)n2C
EC50 [15]: 4.65 µM (active)
EC50 [16]: 5.57 µM (active)
EC50 (Streptococcus): 5.85 µM (active)
EC50 (Streptokinase A): > 150 µM (not active)
EC50 [17]: 12.8 µM (active)
EC50 [3]: 4.7 µM (active)
EC50 [18]: > 20 µM (not active)
AC50 (Cytochrome P450 3A4 [4]): 2.24 µM (inconclusive)

CC(=O)c1cccc(NC(=O)c2cc3ccccn3n2)c1
EC50 [5]: > 79.4 µM (not active)
EC50 [6]: > 79.4 µM (not active)
EC50 [7]: > 79.4 µM (not active)
